Values joined by “and” are separate entries in the source; they are usually repeats but may differ in a detail not shown here. Identical values can stand only once. Like-named read-outs stand apart in the source and are kept apart here.
Experiments:
[1] = mice, oral administration at doses of 2, 5, or 10 mg/kg; cited from earlier work
Experimental: Amanita phalloides poisoning can cause acute hepatitis, leading to the rapid development of liver insufficiency and ultimately coma and death. Nephrotoxicity is reported less frequently. Yilmaz et al. reported that an oral intake of approximately 50 g of fresh Amanita phalloides, representing a dose of 0.32 mg/kg of amatoxins, can be lethal. A few reports are available that describe the toxicokinetics of α- and β-amanitin after the oral administration of toadstool extract to beagle dogs and rats. In addition, the toxicokinetics of α-amanitin were investi ...

[2] = tested on: mice; details: intraperitoneal injection; cited from earlier work
Excerpt: (§1) The Amanitaceae family is responsible for nearly 95% of all fatal mushroom poisonings, and amatoxins are the primary threats to human life. The content of amatoxins varies by Amanita species, but α- and β-amanitin are the most abundant substances. […] Among amatoxins, α-amanitin i ...

[3] = tested on: rats; details: intraperitoneal injection; cited from earlier work
Excerpt: as §1

[4] = Toxicokinetics after intravenous injection in mice; assay type: in vivo; details: male ICR mice; for MRT / Vd / clearance / half-life / AUC(0-inf) / AUC(0-t) / C0: mouse, mean ± SD; for MRT: AUMC/AUC; for Vd: CLxMRT, read-out: Vss; for clearance: Dose/AUC; for half-life: plasma elimination half-life; for AUC(0-inf) / AUC(0-t) / C0: LC-HRMS, non-compartmental
Experimental: (§2) The Institutional Animal Care and Use Committee of the Catholic University of Korea (approval number, CUK-IACUC-2021-004; approval date, 21 March 2021) approved the study protocol. Male ICR mice (8 weeks of age, 27.4 ± 2.3 g) were purchased from Orient Bio Inc. (Seongnam, Korea). Mice were kept in plastic cages with unlimited access to a standard mouse diet (Orient Bio) and water before the experiments. For oral administration, mice were fasted for at least 12 h but allowed free access to water.
β-amanitin was dissolved in water and administered by iv bolus injection into the tail vein of mice at doses of 0.2 (n = 8), 0.4 (n = 6), and 0.8 (n = 7) mg/kg. Blood samples (approximately 15 μL) were collected from the retro-orbital plexus under light anesthesia with isoflurane at 0.033, 0.083, 0.25, 0.5, 0.75, 1, 1.5, 2, 3, 4, 6, and 8 h after drug administration.
(§3) Concentrations of β-amanitin in biological samples were evaluated following our previous methodology. The standard calibration curves for β-amanitin in mouse plasma ranged from 0.5 to 500 ng/mL and were linear, with a correlation coefficient of 0.9952. The inter- and intra-day accuracy and precision fell within the acceptance criteria (3.1–14.6% of coefficients of variation (CVs) and 92.5–115.0% of accuracy). The extraction recovery and matrix effect of this analytical method were 82.8–88.9% and 93.0–98.6%.
(§4) An aliquot (5 μL) of plasma sample was mixed with 15 μL of 4′-hydroxydiclofenac (internal standard (IS), 5 ng/mL) in methanol and vortexed for 2 min. The mixture was centrifuged at 13,000× g at 4 °C for 5 min, and the supernatant was then transferred to an autosampler vial. An aliquot (5 μL) was injected into the LC-HRMS system for analysis.
(§5) The toxicokinetic parameters of β-amanitin were analyzed by non-compartmental analyses (WinNonlin, Pharsight; Mountain View, CA, USA) (Table 1). Data were expressed as mean ± standard deviations (SD). Comparisons of data between groups were performed using one-way ANOVA or Student t-test. Values of p < 0.05 were considered statistically significant.

[5] = Toxicokinetics after oral administration in mice; assay type: in vivo; details: male ICR mice; for bioavailability / Tmax / Cmax / half-life / AUC(0-inf) / AUC(0-t): mouse; for bioavailability / Tmax / Cmax / AUC(0-inf) / AUC(0-t): plasma; for bioavailability: (dose normalized AUCPO/dose normalized AUCIV) × 100, mean ± SD, read-out: F (oral bioavailability); for Tmax: median with range in parentheses; for Cmax: fasted; for Cmax / AUC(0-inf) / AUC(0-t): LC-HRMS; for Cmax / half-life / AUC(0-inf) / AUC(0-t): mean ± SD; for half-life: plasma elimination half-life; for AUC(0-inf) / AUC(0-t): non-compartmental
Experimental: as §2
β-amanitin was dissolved in water and administered to mice by gavage at doses of 2 (n = 7), 5 (n = 9), and 10 (n = 7) mg/kg. Blood samples (approximately 15 μL) were collected from the retro-orbital plexus under light anesthesia with isoflurane at 0.033, 0.083, 0.166, 0.25, 0.5, 0.75, 1, 1.5, 2, 4, 6, and 8 h after drug administration. Plasma samples (5 μL each) were harvested by centrifugation at 13,000× g for 3 min at 4 °C and stored at −80 °C until analysis.
as §3, §4, §5

[6] = tested on: HEK293 control cells; assay: Uptake of amanitins into HEK293 control cells; assay type: in vitro ADME; details: 50 μM amanitin, 5 min, 37 °C, HBSS, LC-HRMS, n = 3
Experimental: HEK293 cells overexpressing OCT2, MATE2-K, OAT1, OAT3, OATP1B1, and OATP1B3 transporters and HEK293-control cells were maintained in a humidified atmosphere of 5% CO2 at 37 °C in DMEM supplemented with 10% FBS and 5 mM non-essential amino acids. In the case of HEK293-OATP1B1, -OATP1B3, and MATE2-K cells, 2 mM sodium butyrate was added to the culture medium to enhance transport activity. Cells were seeded at 2 × 10^5 cells/well in poly-D-lysine-coated 24-well plates. After 24 h, the growth medium was discarded, and attached cells were washed with HBSS and preincubated for 20 min in HBSS at 37 °C. Stock solutions of α- and β-amanitin and representative inhibitors of transporters were diluted in HBSS to make the final concentration: cimetidine 1 mM (for OCT2), cimetidine 100 μM (for MATE2-K), probenecid 100 μM (for OAT1 and OAT3), and rifampin 100 μM (for OATP1B1 and OATP1B3). Uptake of 50 μM α- and β-amanitin was measured in the absence and presence of representative inhibitors for 5 min at 37 °C. Plates were placed immediately on ice, and cells were then washed twice with 1 mL of ice-cold HBSS. Residual HBSS was removed thoroughly from the plates. Subsequently, 150 μL of 80% methanol containing IS was added to each sample well, and the cell plates were shaken gently for 20 min at 4 °C. The remaining steps were the same as described for plasma sample preparation.

[7] = plasma, iv bolus 0.2 mg/kg, n = 8
[8] = plasma, iv bolus 0.4 mg/kg, n = 6
[9] = plasma, iv bolus 0.8 mg/kg, n = 7
[10] = iv bolus 0.2 mg/kg, plasma, n = 8
[11] = iv bolus 0.4 mg/kg, plasma, n = 6
[12] = iv bolus 0.8 mg/kg, plasma, n = 7
[13] = oral 2, 5 and 10 mg/kg, range of the dose-group means

In the case of α-amanitin [reference compound], the Absolute bioavailability [1] is listed as 3.5–4.8%, the Lethal dose [2] is listed as 0.3 to 0.6 mg/kg and the Lethal dose [3] is listed as 4.0 mg/kg.

In the case of CC[C@H](C)[C@@H]1NC(=O)CNC(=O)[C@@H]2Cc3c([nH]c4cc(O)ccc34)[S@+]([O-])C[C@H](NC(=O)CNC1=O)C(=O)N[C@@H](CC(=O)O)C(=O)N1C[C@H](O)C[C@H]1C(=O)N[C@@H]([C@@H](C)[C@@H](O)CO)C(=O)N2 [β-amanitin], the “t1/2, range over the iv doses” value ([4]; iv 0.2, 0.4 and 0.8 mg/kg, plasma, range of the dose-group means) is reported as 18.3–33.6 min and 18.3~33.6 min, the MRT [4, 7] is reported as 22.8 min and the Vd [4, 7] is reported as 0.359 ± 0.0855 L/kg. It also gave a clearance [4, 7] of 15.3 ± 2.5 mL/min/kg, an MRT [4, 8] of 22.4 min and a Vd [4, 8] of 0.366 ± 0.061 L/kg. It also gave a clearance [4, 8] of 16.2 ± 2.4 mL/min/kg, an MRT [4, 9] of 20.7 min and a Vd [4, 9] of 0.39 ± 0.0771 L/kg. It also gave a clearance [4, 9] of 18.8 ± 6 mL/min/kg, a half-life ([4]; iv bolus 0.2 mg/kg, n = 8) of 21.8 ± 8.3 min and an AUC(0-inf) [4, 10] of 223 ng·h/mL. The AUC(0-t) [4, 10] was 222 ng·h/mL, the half-life ([4]; iv bolus 0.4 mg/kg, n = 6) was 18.3 ± 3.1 min and the AUC(0-inf) [4, 11] was 421 ng·h/mL. For the same molecule, the AUC(0-t) [4, 11] was 420 ng·h/mL, the half-life ([4]; iv bolus 0.8 mg/kg, n = 7) was 33.6 ± 22.4 min and the AUC(0-inf) [4, 12] was 771 ng·h/mL. For the same molecule, the AUC(0-t) [4, 12] was 769 ng·h/mL, the C0 ([4]; iv bolus (tail vein) 0.2 mg/kg in water, plasma, n = 8) was 712 ± 182 ng/mL and the C0 ([4]; iv bolus (tail vein) 0.4 mg/kg in water, plasma, n = 6) was 1440 ± 324 ng/mL. For the same molecule, the C0 ([4]; iv bolus (tail vein) 0.8 mg/kg in water, plasma, n = 7) was 3250 ± 904 ng/mL, the “Tmax, range over the oral doses” value ([5]; oral 2, 5 and 10 mg/kg, range of individual values) was 10~120 min and the “Absolute (oral) bioavailability, range over the oral doses” value [5, 13] was 7.3–9.4%. The “t1/2, range over the oral doses” value [5, 13] was 105.0~132.0 min, the bioavailability ([5]; oral gavage 2 mg/kg, n = 7) was 9.4 ± 4.9% and the Tmax ([5]; oral gavage 2 mg/kg, n = 7) was 60 min. It also gave a bioavailability ([5]; oral gavage 5 mg/kg, n = 9) of 8.1 ± 4.3%, a Tmax ([5]; oral gavage 5 mg/kg, n = 9) of 90 min and a bioavailability ([5]; oral gavage 10 mg/kg, n = 7) of 7.3 ± 3.1%. For the same molecule, the Tmax ([5]; oral gavage 10 mg/kg, n = 7) was 60 min, the Cmax ([5]; oral gavage 2 mg/kg in water, n = 7) was 67.1 ± 18.6 ng/mL and the Cmax ([5]; oral gavage 5 mg/kg in water, n = 9) was 140 ± 116 ng/mL. It also gave a Cmax ([5]; oral gavage 10 mg/kg in water, n = 7) of 360 ± 385 ng/mL, a half-life ([5]; oral gavage 2 mg/kg, n = 7) of 105 ± 94.1 min and an AUC(0-inf) ([5]; oral gavage 2 mg/kg, n = 7) of 191 ng·h/mL. It also gave an AUC(0-t) ([5]; oral gavage 2 mg/kg, n = 7) of 181 ng·h/mL, a half-life ([5]; oral gavage 5 mg/kg, n = 9) of 132 ± 50.3 min and an AUC(0-inf) ([5]; oral gavage 5 mg/kg, n = 9) of 438 ng·h/mL. The AUC(0-t) ([5]; oral gavage 5 mg/kg, n = 9) was 391 ng·h/mL, the half-life ([5]; oral gavage 10 mg/kg, n = 7) was 130 ± 78.5 min and the AUC(0-inf) ([5]; oral gavage 10 mg/kg, n = 7) was 810 ng·h/mL. For the same molecule, the AUC(0-t) ([5]; oral gavage 10 mg/kg, n = 7) was 698 ng·h/mL and the “Uptake into HEK293 control cells, β- versus α-amanitin” value [6] was “greater than α-amanitin”.
